The values that follow come from patent US20220340547A1, “INDOLE DERIVATIVE-CONTAINING INHIBITOR, PREPARATION METHOD THEREFOR AND APPLICATION THEREOF” (Shanghi Hansoh Biosoh Biomedical Co., Ltd., priority 2019, published 2022).

Broadly, the IC50 is the midpoint of a concentration-inhibition curve. The half-life is how long it takes for the measured level to halve.

One series concerns the target EGFR D770_N771insNPG (Homo sapiens, UniProt P00533, INS770NPG). The series is described as follows: TR-FRET inhibition of kinase activity of EGFR exon 20 insertion mutation. The class given is biochemical.
The nature of series [1]: Plasma stability test, human plasma. To be noted: 37° C. The class given is in vitro ADME. How it is done: (§1) Test Example 5. Plasma Stability Test
(§2) The objective of this experiment is to determine the stability of the compounds of the examples in the plasma of mouse, rat and human.
(§3) 1. Plasma preparation: Animal or human whole blood was collected, placed into a test tube containing anticoagulant, and centrifuged at 3500 rpm for 10 min. The light yellow plasma in the upper layer was collected.
(§4) 2. 1 mM test compound (m/M/V=C), the compound was weighed and formulated into stock solution with DMSO.
(§5) 1. 398 μL of plasma and 2 μL of 1 mM compound (test compound) were added successively to a 96-well plate, and incubated at 37° C.
(§6) 2. 50 μL of solution was taken out at 0, 15, 30, 60, 120 min, to which 400 μL of methanol stop solution containing internal standard was added.
(§7) 3. The solution was centrifuged (3220 g, 30 min). 50 μL of supernatant was taken out, to which 50 μL of DDH2O was added to dilute. The resulting solution was injected into a LC-MS/MS.

The test system of series [2] is Ba/F3 EGFR-D770-N771ins_SVD xenograft. The series is described as follows: In vivo pharmacodynamic study in mouse pro-B cell Ba/F3 EGFR-D770-N771ins_SVD xenograft model. The note with it: 40 mg/kg, oral, 1 time/day, 14 days. The procedure: In Vivo Pharmacodynamic Study of the Compound of the Present Invention in the Mouse Pro-B Cell Ba/F3 EGFR-D770-N771ins_SVD Xenograft Model
The in vivo efficacy of the compound in the mouse pro-B cell Ba/F3 EGFR-D770-N771ins_SVD xenograft model was evaluated.
BALB/cA nude mice (6-8 weeks old, female) were purchased from Shanghai Sino-British SIPPR/BK Lab Animal Co., Ltd.
a. […] The resuscitated cells were placed in the cell culture flasks (cell type, date, the name of the culturing person and the like were marked on the flask wall), and incubated in a CO2 incubator (the incubator temperature was 37° C., and the CO2 concentration was 5%).
b. The cells were passaged every three days. After passage, the cells were further incubated in the CO2 incubator. The process was repeated until the number of cells met the requirements of the in vivo pharmacodynamic study.
c. The cultured cells were collected and counted by the automatic cell counter. According to the counting results, the cells were resuspended in PBS to prepare a cell suspension (density: 2×10^7 cells/mL), which was placed in an ice box for later use.
d. The test nude mice were inoculated in turn (0.1 mL of cell suspension per mouse).
a. Tumor was measured on Day 8 to Day 14 after inoculation depending on the tumor growth, and tumor size was calculated.
Tumor volume calculation: tumor volume (mm^3)=length (mm)×width (mm)×width (mm)/2
b. According to the body weight and tumor size of the tumor-bearing mouse, the mice were randomly grouped (5 mice per group).
d. The tumor was measured and the mouse was weighed twice a week after the test drug was administrated.
Calculation of the Tumor Growth Inhibition Rate TGI (%) of the Compound: […]

For series [3], the target named is Ba/F3 EGFR-D770-N771ins_SVD (Homo sapiens, UniProt P00533, DUP768-770, cells depend on it). The series is described as follows: Proliferation of Ba/F3 EGFR mutant cell line (CellTiter-Glo). The note with it: 72 h to 144 h, read-out: Ba/F3 EGFR-D770-N771ins_SVD IC50. Type of series: cell-based, mouse.
A further series deals with A431 cell line. The series is described as follows: Proliferation of A431 cell line (CellTiter-Glo). Type of series: cell-based. The note with it: Homo sapiens, A-431, 72 h. (ATP-based viability assays read luminescence as a measure of living cells.)
The nature of series [4]: Plasma stability test, mouse plasma. The class given is in vitro ADME. The note with it: 37° C. How it is done: as §1, §2, §3, §4, §5, §6, §7
Series [5] in a line: Plasma stability test, rat plasma. The class given is in vitro ADME. To be noted: 37° C. The procedure:
as §1, §2, §3, §4, §5, §6, §7

Ba/F3 EGFR-D770-N771ins_SVD, sequence (P00533 with tags, fused parts or gaps DUP768-770): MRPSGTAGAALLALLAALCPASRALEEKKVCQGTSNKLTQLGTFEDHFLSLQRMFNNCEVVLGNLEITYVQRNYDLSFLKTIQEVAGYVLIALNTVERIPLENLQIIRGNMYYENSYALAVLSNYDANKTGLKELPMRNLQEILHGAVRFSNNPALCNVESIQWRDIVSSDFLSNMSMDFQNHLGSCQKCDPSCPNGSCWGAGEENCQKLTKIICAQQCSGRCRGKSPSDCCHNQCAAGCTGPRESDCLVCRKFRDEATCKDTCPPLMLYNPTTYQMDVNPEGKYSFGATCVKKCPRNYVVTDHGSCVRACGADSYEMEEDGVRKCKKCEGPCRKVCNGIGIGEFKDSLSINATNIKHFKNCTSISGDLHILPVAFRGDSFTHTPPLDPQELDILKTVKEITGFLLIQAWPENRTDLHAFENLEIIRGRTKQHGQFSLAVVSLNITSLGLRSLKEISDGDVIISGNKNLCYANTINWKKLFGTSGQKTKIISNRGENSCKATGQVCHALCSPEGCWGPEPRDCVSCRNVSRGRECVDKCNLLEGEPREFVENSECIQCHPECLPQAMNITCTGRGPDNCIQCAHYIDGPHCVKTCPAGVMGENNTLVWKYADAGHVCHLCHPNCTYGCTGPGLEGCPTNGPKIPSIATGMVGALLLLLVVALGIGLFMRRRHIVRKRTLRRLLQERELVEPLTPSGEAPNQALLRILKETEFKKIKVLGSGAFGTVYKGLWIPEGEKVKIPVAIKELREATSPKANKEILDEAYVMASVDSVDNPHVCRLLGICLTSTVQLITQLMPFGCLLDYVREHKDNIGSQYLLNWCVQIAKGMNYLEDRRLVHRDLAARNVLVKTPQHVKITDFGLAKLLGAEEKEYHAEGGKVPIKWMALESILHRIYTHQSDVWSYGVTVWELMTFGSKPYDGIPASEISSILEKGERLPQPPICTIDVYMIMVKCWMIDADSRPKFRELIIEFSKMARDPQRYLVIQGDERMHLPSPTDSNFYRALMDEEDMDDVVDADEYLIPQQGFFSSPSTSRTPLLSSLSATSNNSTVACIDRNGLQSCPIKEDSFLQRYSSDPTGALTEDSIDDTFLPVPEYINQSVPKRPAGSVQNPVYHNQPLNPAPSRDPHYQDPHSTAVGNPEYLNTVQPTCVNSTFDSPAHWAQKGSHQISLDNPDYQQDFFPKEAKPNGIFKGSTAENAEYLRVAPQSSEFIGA
EGFR D770_N771insNPG, sequence (P00533 with tags, fused parts or gaps INS770NPG limits assumed): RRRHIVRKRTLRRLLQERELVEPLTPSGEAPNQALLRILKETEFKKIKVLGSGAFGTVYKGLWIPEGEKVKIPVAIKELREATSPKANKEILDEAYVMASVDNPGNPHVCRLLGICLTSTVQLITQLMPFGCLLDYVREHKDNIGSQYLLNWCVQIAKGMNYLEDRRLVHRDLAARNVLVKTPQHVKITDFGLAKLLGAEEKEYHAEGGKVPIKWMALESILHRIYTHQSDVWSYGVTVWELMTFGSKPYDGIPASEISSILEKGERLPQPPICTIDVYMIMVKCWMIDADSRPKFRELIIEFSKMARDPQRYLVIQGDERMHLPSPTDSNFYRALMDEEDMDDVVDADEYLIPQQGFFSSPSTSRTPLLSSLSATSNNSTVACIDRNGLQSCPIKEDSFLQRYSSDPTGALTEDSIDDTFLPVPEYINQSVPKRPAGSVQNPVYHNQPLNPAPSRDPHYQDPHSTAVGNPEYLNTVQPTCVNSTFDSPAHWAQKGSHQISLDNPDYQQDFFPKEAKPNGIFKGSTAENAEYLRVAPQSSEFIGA

`C=CC(=O)Nc1cc(Nc2ncc(C#N)c(-c3cn(C4CC4)c4ccccc34)n2)c(OC)cc1N(C)CCN(C)C` [Example 67, N-(5-((5-Cyano-4-(1-cyclopropyl-1H-indol-3-yl)pyrimidin-2-yl)amino)-2-((2-(dimethylamino)ethyl)(methyl)amino)-4-methoxyphenyl)acrylamide]: the half-maximal inhibitory concentration (IC50) at EGFR D770_N771insNPG stood at 0.14 nM; in the series on A431 cell line it was 94.5 nM. Further, the half-life at 5 µM was 1.38 h in series [1], 0.665 h in series [4] and 1.23 h in series [5]. Besides, the “Residual rate (%) 0 min” value in series [1] (0 min), in series [4] (0 min) and in series [5] (0 min) was 100.00% each time. Moreover, the “Residual rate (%) 15 min” value stood at 93.86% in series [1] (15 min), 88.69% in series [4] (15 min) and 90.61% in series [5] (15 min). The “Residual rate (%) 30 min” value in series [1] (30 min) was 85.71%; in series [4] (30 min), 69.92%; in series [5] (30 min), 81.14%. In addition, the “Residual rate (%) 60 min” value in series [1] (60 min) is 67.74%; in series [4] (60 min), 36.29%; in series [5] (60 min), 59.66%. Besides, the “Residual rate (%) 120 min” value in series [1] (120 min) came out at 37.38%; in series [4] (120 min) it was 9.06%; in series [5] (120 min), 33.25%. The “T/C (%) Day 14” value in series [2] is listed as 10.94%. In addition, the “TGI (%) Day 14” value in series [2] is 89.06%. Also, the “Tumor volume (mm3, Mean ± SD) Day 14” value in series [2] (BALB/cA nude mice) is on record as 212 ± 44 mm3. The GI50 in series [3] was 10.4 nM.
